# Tests used:
# [1] = target: T1, ΔF508-CFTR (Homo sapiens, UniProt P13569, DEL508-508); experiment: CFTR cell surface levels using HRP-tagged ΔF508-CFTR expressing CFBE cells, intrinsic corrector capacity; assay type: cell-based; parameters: % Activation: concentration or dose not given beside the values
# T1 construct: host or cells: CFBE41o-, doxycycline-inducible
# In short: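 Read-out: chemiluminescent HRP activity of ECL4-HRP-tagged ΔF508-CFTR at the cell surface, 15 min substrate in dark. Normalized as 100×(sample−DMSO)/(positive control−DMSO).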
# [2] = target: T1, ΔF508-CFTR; experiment: CFTR cell surface levels using HRP-tagged ΔF508-CFTR expressing CFBE cells, in the presence of a co-corrector; assay type: cell-based
# In short: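 Chemiluminescent read-out of surface HRP (15 min, dark) after PBS washes. Activity is normalized as 100×(sample−DMSO)/(3 μM co-corrector alone−DMSO).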
# [3] = HRP-tagged ΔF508-CFTR expressing CFBE41o- cells, compound alone (intrinsic corrector capacity), 20 hours at 33° C.
# [4] = HRP-tagged ΔF508-CFTR expressing CFBE41o- cells, compound alone (intrinsic corrector capacity), 20 hours at 33° C., read-out: EC50
# [5] = HRP-tagged ΔF508-CFTR CFBE cells, in the presence of 3 μM co-corrector
# [6] = HRP-tagged ΔF508-CFTR CFBE cells, in the presence of 3 μM co-corrector, read-out: EC50
# T1 sequence (P13569 with tags, fused parts or gaps DEL508-508): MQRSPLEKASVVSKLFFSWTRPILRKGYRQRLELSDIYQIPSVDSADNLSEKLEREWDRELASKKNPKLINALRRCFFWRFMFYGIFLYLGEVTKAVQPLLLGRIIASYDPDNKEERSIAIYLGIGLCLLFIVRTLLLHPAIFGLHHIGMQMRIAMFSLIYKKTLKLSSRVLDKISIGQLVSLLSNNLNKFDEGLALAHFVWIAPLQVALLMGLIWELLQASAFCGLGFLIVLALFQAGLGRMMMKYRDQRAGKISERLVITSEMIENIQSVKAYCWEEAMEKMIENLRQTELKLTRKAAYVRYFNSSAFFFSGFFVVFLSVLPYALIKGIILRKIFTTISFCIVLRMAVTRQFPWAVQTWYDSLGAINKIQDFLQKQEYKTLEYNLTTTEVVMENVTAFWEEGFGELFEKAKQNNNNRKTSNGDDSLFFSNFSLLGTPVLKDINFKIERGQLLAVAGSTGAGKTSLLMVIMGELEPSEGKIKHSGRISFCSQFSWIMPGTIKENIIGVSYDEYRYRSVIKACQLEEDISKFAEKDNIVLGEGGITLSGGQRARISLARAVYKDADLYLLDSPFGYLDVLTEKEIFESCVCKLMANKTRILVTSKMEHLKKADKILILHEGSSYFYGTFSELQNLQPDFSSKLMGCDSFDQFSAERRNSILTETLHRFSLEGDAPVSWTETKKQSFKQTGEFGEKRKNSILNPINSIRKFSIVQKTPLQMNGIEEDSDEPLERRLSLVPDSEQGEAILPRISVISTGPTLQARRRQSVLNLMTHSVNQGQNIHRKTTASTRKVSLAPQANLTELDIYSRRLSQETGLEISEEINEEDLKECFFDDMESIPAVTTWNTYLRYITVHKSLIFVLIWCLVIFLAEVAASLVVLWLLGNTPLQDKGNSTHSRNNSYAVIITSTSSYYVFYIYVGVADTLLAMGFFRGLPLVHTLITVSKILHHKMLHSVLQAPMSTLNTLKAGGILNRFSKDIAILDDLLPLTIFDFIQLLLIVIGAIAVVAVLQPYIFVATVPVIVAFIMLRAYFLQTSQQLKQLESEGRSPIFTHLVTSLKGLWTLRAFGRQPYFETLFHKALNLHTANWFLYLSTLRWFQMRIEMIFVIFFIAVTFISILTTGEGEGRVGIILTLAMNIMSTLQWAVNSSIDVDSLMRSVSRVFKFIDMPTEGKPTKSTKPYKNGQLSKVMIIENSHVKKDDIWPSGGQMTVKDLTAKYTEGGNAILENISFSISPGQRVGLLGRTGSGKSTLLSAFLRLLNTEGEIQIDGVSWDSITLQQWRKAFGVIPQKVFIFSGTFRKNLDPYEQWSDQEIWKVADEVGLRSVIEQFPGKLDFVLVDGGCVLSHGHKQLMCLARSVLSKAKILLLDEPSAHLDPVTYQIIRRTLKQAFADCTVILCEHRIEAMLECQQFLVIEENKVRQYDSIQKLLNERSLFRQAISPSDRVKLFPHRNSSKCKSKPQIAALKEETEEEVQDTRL
Structure (SMILES),"% Activation [1, 3] [%]","EC50 [1, 4] [nM]","% Activation [2, 5] [%]","EC50 [2, 6] [nM]",EC50 [1] [nM],EC50 [2] [nM]
"CCCN(C)S(=O)(=O)NC(=O)c1cc(N2CCC(COC)CC2)c2c(C3CCC3)nn(-c3ccccc3)c2n1 [Compound 391, 3-cyclobutyl-4-[4-(methoxymethyl)piperidin-1-yl]-N-[methyl(propyl)sulfamoyl]-1-phenyl-1H-pyrazolo[3,4-b]pyridine-6-carboxamide]",247.7,77.1,441.15,85.5,–,–
"CCCN(CC)S(=O)(=O)NC(=O)c1cc(N2CCC(COC)CC2)c2c(C3CCC3)nn(-c3ccccc3)c2n1 [Compound 392, 3-cyclobutyl-N-[ethyl(propyl)sulfamoyl]-4-[4-(methoxymethyl)piperidin-1-yl]-1-phenyl-1H-pyrazolo[3,4-b]pyridine-6-carboxamide]",240.05,150,421.4,139,–,–
"CCOC(=O)N1CCC(NS(=O)(=O)NC(=O)c2cc(N3CCC(COC)CC3)c3c(C4CCC4)nn(-c4ccccc4)c3n2)CC1 [Compound 393, ethyl 4-[({3-cyclobutyl-4-[4-(methoxymethyl)piperidin-1-yl]-1-phenyl-1H-pyrazolo[3,4-b]pyridine-6-carbonyl}sulfamoyl)amino]piperidine-1-carboxylate]",423.6,51.4,533.65,20.8,–,–
"COCC1CCN(c2cc(C(=O)NS(=O)(=O)N3CCCN(C(C)=O)CC3)nc3c2c(C2CCC2)nn3-c2ccccc2)CC1 [Compound 394, N-(4-acetyl-1,4-diazepane-1-sulfonyl)-3-cyclobutyl-4-[4-(methoxymethyl)piperidin-1-yl]-1-phenyl-1H-pyrazolo[3,4-b]pyridine-6-carboxamide]",194.35,99.5,366.87,47.9,–,–
"COCC1CCN(c2cc(C(=O)NS(=O)(=O)N3CCC(N4CCC[C@@H]4COC)CC3)nc3c2c(C2CCC2)nn3-c2ccccc2)CC1 [Compound 395, 3-cyclobutyl-4-[4-(methoxymethyl)piperidin-1-yl]-N-{4-[(2R)-2-(methoxymethyl)pyrrolidin-1-yl]piperidine-1-sulfonyl}-1-phenyl-1H-pyrazolo[3,4-b]pyridine-6-carboxamide]",209.2,474,327.95,127,–,–
"COCC1CCN(c2cc(C(=O)NS(=O)(=O)N3CCC(C(=O)N4CCN(C)CC4)CC3)nc3c2c(C2CCC2)nn3-c2ccccc2)CC1 [Compound 398, 3-cyclobutyl-4-[4-(methoxymethyl)piperidin-1-yl]-N-[4-(4-methylpiperazine-1-carbonyl)piperidine-1-sulfonyl]-1-phenyl-1H-pyrazolo[3,4-b]pyridine-6-carboxamide]",173.7,181,324.03,73.6,–,–
"COCC1CCN(c2cc(C(=O)NS(=O)(=O)C3CC3)nc3c2c(C2CCC2)nn3-c2ccccc2)CC1 [Compound 401, 3-cyclobutyl-N-(cyclopropanesulfonyl)-4-[4-(methoxymethyl)piperidin-1-yl]-1-phenyl-1H-pyrazolo[3,4-b]pyridine-6-carboxamide]",400.8,104,595.1,62,–,–
"CCS(=O)(=O)NC(=O)c1cc(N2CCC(COC)CC2)c2c(C3CCC3)nn(-c3ccccc3)c2n1 [Compound 403, 3-cyclobutyl-N-(ethanesulfonyl)-4-[4-(methoxymethyl)piperidin-1-yl]-1-phenyl-1H-pyrazolo[3,4-b]pyridine-6-carboxamide]",389.2,30.2,507.35,25.6,–,–
"COCCS(=O)(=O)NC(=O)c1cc(N2CCC(N3CCOCC3)CC2)c2c(C3CCC3)nn(C3CCCCC3)c2n1 [Compound 419, 3-cyclobutyl-1-cyclohexyl-N-(2-methoxyethanesulfonyl)-4-[4-(morpholin-4-yl)piperidin-1-yl]-1H-pyrazolo[3,4-b]pyridine-6-carboxamide]",293,448,505.65,277,–,–
"CN(C)S(=O)(=O)NC(=O)c1cc(N2CCC(CCN3CCOCC3)CC2)c2c(C3CCC3)nn(C3CCCCC3)c2n1 [Compound 425, 3-cyclobutyl-1-cyclohexyl-N-(dimethylsulfamoyl)-4-{4-[2-(morpholin-4-yl)ethyl]piperidin-1-yl}-1H-pyrazolo[3,4-b]pyridine-6-carboxamide]",280.2,277,462.85,166,–,–
"CN(C)S(=O)(=O)NC(=O)c1cc(N2CCC(N3CCCCC3)CC2)c2c(C3CCC3)nn(-c3ccccc3)c2n1 [Compound 426, 4-([1,4′-bipiperidin]-1′-yl)-3-cyclobutyl-N-(dimethylsulfamoyl)-1-phenyl-1H-pyrazolo[3,4-b]pyridine-6-carboxamide]",143.7,–,385.3,–,302,82
"COCC1CCN(c2cc(C(=O)NS(C)(=O)=O)nc3c2c(C2CCC2)nn3-c2ccnc(C)c2)CC1 [Compound 430, 3-cyclobutyl-N-(methanesulfonyl)-4-[4-(methoxymethyl)piperidin-1-yl]-1-(2-methylpyridin-4-yl)-1H-pyrazolo[3,4-b]pyridine-6-carboxamide]",170.05,231,383.7,89.9,–,–
"CCCN(C)S(=O)(=O)NC(=O)c1cc(N2CCC(N3CCOCC3)CC2)c2c(C3CCC3)nn(-c3ccccc3)c2n1 [Compound 432, 3-cyclobutyl-N-[methyl(propyl)sulfamoyl]-4-[4-(morpholin-4-yl)piperidin-1-yl]-1-phenyl-1H-pyrazolo[3,4-b]pyridine-6-carboxamide]",243.6,119,514.83,65.9,–,–
"CCOC(=O)N1CCC(NS(=O)(=O)NC(=O)c2cc(N3CCC(N4CCOCC4)CC3)c3c(C4CCC4)nn(-c4ccccc4)c3n2)CC1 [Compound 433, ethyl 4-[({3-cyclobutyl-4-[4-(morpholin-4-yl)piperidin-1-yl]-1-phenyl-1H-pyrazolo[3,4-b]pyridine-6-carbonyl}sulfamoyl)amino]piperidine-1-carboxylate]",361.5,96.5,563.8,49,–,–
"O=C(NS(=O)(=O)N1CCC(F)CC1)c1cc(N2CCC(N3CCOCC3)CC2)c2c(C3CCC3)nn(-c3ccccc3)c2n1 [Compound 434, 3-cyclobutyl-N-(4-fluoropiperidine-1-sulfonyl)-4-[4-(morpholin-4-yl)piperidin-1-yl]-1-phenyl-1H-pyrazolo[3,4-b]pyridine-6-carboxamide]",245.2,57.7,470.37,59.5,–,–
"CC1(S(=O)(=O)NC(=O)c2cc(N3CCC(N4CCOCC4)CC3)c3c(C4CCC4)nn(-c4ccccc4)c3n2)CC1 [Compound 435, 3-cyclobutyl-N-(1-methylcyclopropane-1-sulfonyl)-4-[4-(morpholin-4-yl)piperidin-1-yl]-1-phenyl-1H-pyrazolo[3,4-b]pyridine-6-carboxamide]",269.9,136,474.8,82.8,–,–
"O=C(NS(=O)(=O)C1CC1)c1cc(N2CCC(N3CCOCC3)CC2)c2c(C3CCC3)nn(-c3ccccc3)c2n1 [Compound 436, 3-cyclobutyl-N-(cyclopropanesulfonyl)-4-[4-(morpholin-4-yl)piperidin-1-yl]-1-phenyl-1H-pyrazolo[3,4-b]pyridine-6-carboxamide]",393.3,344,568.6,71.1,–,–
"CCS(=O)(=O)NC(=O)c1cc(N2CCC(N3CCOCC3)CC2)c2c(C3CCC3)nn(-c3ccccc3)c2n1 [Compound 437, 3-cyclobutyl-N-(ethanesulfonyl)-4-[4-(morpholin-4-yl)piperidin-1-yl]-1-phenyl-1H-pyrazolo[3,4-b]pyridine-6-carboxamide]",353.8,–,563.64,–,–,–
"COCCS(=O)(=O)NC(=O)c1cc(N2CCC(N3CCOCC3)CC2)c2c(C3CCC3)nn(-c3ccccc3)c2n1 [Compound 438, 3-cyclobutyl-N-(2-methoxyethanesulfonyl)-4-[4-(morpholin-4-yl)piperidin-1-yl]-1-phenyl-1H-pyrazolo[3,4-b]pyridine-6-carboxamide]",337,392,541.5,380,–,–
"COC[C@@H]1CCCN1C1CCN(S(=O)(=O)NC(=O)c2cc(N3CCC(N4CCOCC4)CC3)c3c(C4CCC4)nn(-c4ccccc4)c3n2)CC1 [Compound 439, 3-cyclobutyl-N-{4-[(2S)-2-(methoxymethyl)pyrrolidin-1-yl]piperidine-1-sulfonyl}-4-[4-(morpholin-4-yl)piperidin-1-yl]-1-phenyl-1H-pyrazolo[3,4-b]pyridine-6-carboxamide]",166.8,550,374.6,381,–,–
"CC(C)Oc1nn(C2CCCCC2)c2nc(C(=O)NS(=O)(=O)N(C)C)cc(-c3ccc(CN4CCN(C)CC4)cc3)c12 [Compound 442, 1-cyclohexyl-N-(dimethylsulfamoyl)-4-{4-[(4-methylpiperazin-1-yl)methyl]phenyl}-3-[(propan-2-yl)oxy]-1H-pyrazolo[3,4-b]pyridine-6-carboxamide]",146.8,307,342,1110,–,–

# From patent US10259810B2, “N-sulfonylated pyrazolo[3,4-b]pyridin-6-carboxamides and method of use” (AbbVie S.à.r.l., priority 2015, dated 2019)
